Test results taken from paper PMC9490236, “Accurate de novo design of membrane-traversing macrocycles” (Cell, 2022).
Where a SMILES comes first, the peptide text is derived from it. [ ]: non-standard residue; d: D form. NMeF = CN[C@@H](Cc1ccccc1)C(=O)O; NMeL = CN[C@@H](CC(C)C)C(=O)O; dNMeL = CN[C@H](CC(C)C)C(=O)O; dNMeV = CN[C@@H](C(=O)O)C(C)C; NMeV = CN[C@H](C(=O)O)C(C)C; NMeA = CN[C@@H](C)C(=O)O; dNMeA = CN[C@H](C)C(=O)O

What was measured:
[1] = PAMPA
in vitro = conditions: PAMPA, PAMPA_Papp_Avg

`CC[C@H](C)[C@@H]1NC(=O)CNC(=O)[C@@H]2CCCN2C(=O)[C@H]2CCCN2C(=O)[C@H]([C@@H](C)CC)NC(=O)[C@@H](C)N(C)C(=O)[C@@H]2CCCN2C(=O)[C@H](C(C)C)NC(=O)[C@@H](CC(C)C)NC1=O` [Design D9.33, DPRO PRO GLY ILE DLEU VAL PRO *DALA ILE] (cyclo(GI[dL]VP[dNMeA]I[dP]P)) gave a PAMPA_R1 [1] of 2.73E-07, a PAMPA_R3 [1] of 4.74E-07 and a Papp (in vitro) of 0.317 ×10⁻⁶ cm/s.

With `CC[C@H](C)[C@@H]1NC(=O)[C@H]2CCCN2C(=O)[C@H](CC(C)C)N(C)C(=O)[C@H](CC(C)C)NC(=O)[C@H](C(C)C)NC(=O)[C@@H]2CCCN2C(=O)[C@H](CC(C)C)N(C)C(=O)[C@H](C(C)C)NC(=O)[C@@H](C(C)C)NC1=O` [Design D9.39, DVAL VAL *LEU PRO VAL LEU *LEU DPRO ILE] (cyclo(I[dV]V[NMeL]PVL[NMeL][dP])) the PAMPA_R1 [1] was 5.51E-07, the PAMPA_R3 [1] was 2.78E-07 and the Papp (in vitro) was 0.466 ×10⁻⁶ cm/s.

`CC[C@@H](C)[C@H]1NC(=O)[C@H](Cc2ccccc2)NC(=O)[C@@H](C)NC(=O)[C@@H](CC(C)C)N(C)C(=O)[C@@H]2CCCN2C(=O)[C@H](C)NC(=O)[C@H]2CCCN2C(=O)[C@@H]2CCCN2C(=O)[C@@H](Cc2ccccc2)NC1=O` [Design D9.41, PRO DPRO ALA PRO *DLEU DALA PHE DILE DPHE] (cyclo(AP[dNMeL][dA]F[dI][dF]P[dP])) gave a PAMPA_R1 [1] of 3.56E-06, a PAMPA_R3 [1] of 3.41E-06 and a Papp (in vitro) of 3.48 ×10⁻⁶ cm/s.

Compound `CC[C@H](C)[C@@H]1NC(=O)[C@H]2CCCN2C(=O)[C@@H]2CCCN2C(=O)[C@H](C(C)C)NC(=O)[C@@H](C(C)C)NC(=O)[C@H](Cc2ccccc2)N(C)C(=O)[C@H]2CCCN2C(=O)[C@@H](CC(C)C)N(C)C(=O)[C@@H](CC(C)C)NC1=O` [Design D9.42, DPRO ILE DLEU *DLEU DPRO *PHE DVAL VAL PRO] (cyclo(I[dL][dNMeL][dP][NMeF][dV]VP[dP])) has a PAMPA_R1 [1] of 1.18E-06, a PAMPA_R3 [1] of 1.07E-06 and a Papp (in vitro) of 1.12 ×10⁻⁶ cm/s.

Work on `CC(C)C[C@@H]1C(=O)N2CCC[C@@H]2C(=O)N(C)[C@@H](C(C)C)C(=O)N[C@@H](C(C)C)C(=O)N2CCC[C@H]2C(=O)N2CCC[C@@H]2C(=O)N[C@@H](C)C(=O)N[C@H](C(C)C)C(=O)N(C)[C@@H](CC(C)C)C(=O)N[C@@H](C)C(=O)N1C` [Design D10.6, PRO DPRO ALA DVAL *LEU ALA *DLEU DPRO *VAL VAL] (cyclo(A[dNMeL][dP][NMeV]VP[dP]A[dV][NMeL])) yielded a PAMPA_R1 [1] of 1.62E-06, a PAMPA_R3 [1] of 7.67E-07 and a Papp (in vitro) of 1.22 ×10⁻⁶ cm/s.

Compound `CC(C)C[C@@H]1NC(=O)[C@@H](CC(C)C)NC(=O)[C@@H]2CCCN2C(=O)[C@@H](CC(C)C)NC(=O)[C@H](C)N(C)C(=O)[C@H](C)NC(=O)[C@H](CC(C)C)N(C)C(=O)[C@@H]2CCCN2C(=O)[C@H](CC(C)C)NC(=O)[C@H](CC(C)C)N(C)C1=O` [Design D10.16, DLEU LEU *LEU LEU PRO *LEU ALA *ALA DLEU PRO] (cyclo(A[NMeA][dL]P[dL]L[NMeL]LP[NMeL])) has a PAMPA_R1 [1] of 2.30E-06, a PAMPA_R3 [1] of 2.32E-06 and a Papp (in vitro) of 2.27 ×10⁻⁶ cm/s.

Work on `CC(C)C[C@@H]1C(=O)N[C@H](C)C(=O)N2CCC[C@H]2C(=O)N(C)[C@H](CC(C)C)C(=O)N[C@@H](C)C(=O)N(C)[C@@H](CC(C)C)C(=O)N(C)[C@H](C(C)C)C(=O)N[C@H](Cc2ccccc2)C(=O)N2CCC[C@@H]2C(=O)N2CCC[C@H]2C(=O)N1C` [Design D10.18, DPRO PRO *DLEU DALA PRO *DLEU ALA *LEU *DVAL DPHE] (cyclo([dNMeL][dA]P[dNMeL]A[NMeL][dNMeV][dF][dP]P)) yielded a PAMPA_R1 [1] of 9.23E-08, a PAMPA_R3 [1] of 1.49E-07 and a Papp (in vitro) of 0.0948 ×10⁻⁶ cm/s.

With `CC(C)C[C@@H]1NC(=O)[C@@H](Cc2ccccc2)NC(=O)[C@@H](CC(C)C)N(C)C(=O)[C@@H]2CCCN2C(=O)[C@H](C)NC(=O)[C@@H](CC(C)C)N(C)C(=O)[C@@H]2CCCN2C(=O)[C@H](CC(C)C)N(C)C(=O)[C@H](CC(C)C)N(C)C(=O)[C@H](C(C)C)NC1=O` [Design D10.20, PRO *DLEU ALA PRO *DLEU DPHE LEU VAL *LEU *LEU] (cyclo(AP[dNMeL][dF]LV[NMeL][NMeL]P[dNMeL])) the PAMPA_R1 [1] was 1.95E-06, the PAMPA_R3 [1] was 3.37E-06 and the Papp (in vitro) was 2.59 ×10⁻⁶ cm/s.

Work on `CC[C@@H](C)[C@H]1NC(=O)[C@H](C(C)C)NC(=O)[C@H]2CCCN2C(=O)[C@@H]2CCCN2C(=O)[C@H](CC(C)C)N(C)C(=O)[C@H](C)N(C)C(=O)[C@@H](CC(C)C)N(C)C(=O)[C@H](C)NC(=O)[C@@H](Cc2ccccc2)NC(=O)[C@@H]2CCCN2C1=O` [Design D10.25, DPHE ALA *DLEU *ALA *LEU PRO DPRO VAL DILE PRO] (cyclo(A[dNMeL][NMeA][NMeL]P[dP]V[dI]P[dF])) yielded a PAMPA_R1 [1] of 3.97E-07, a PAMPA_R3 [1] of 4.39E-07 and a Papp (in vitro) of 0.452 ×10⁻⁶ cm/s.

`CC[C@@H](C)[C@H]1NC(=O)[C@@H]2CCCN2C(=O)[C@@H](Cc2ccccc2)NC(=O)[C@H](CC(C)C)N(C)C(=O)[C@H](C)NC(=O)[C@H]2CCCN2C(=O)[C@@H]2CCCN2C(=O)[C@H](CC(C)C)NC(=O)[C@H](CC(C)C)N(C)C(=O)[C@H](C)N(C)C1=O` [Design D10.26, PRO DILE *ALA *LEU LEU PRO DPRO ALA *LEU DPHE] (cyclo(A[NMeL][dF]P[dI][NMeA][NMeL]LP[dP])) gave a PAMPA_R1 [1] of 1.40E-06, a PAMPA_R3 [1] of 1.69E-06 and a Papp (in vitro) of 1.51 ×10⁻⁶ cm/s.

Work on `CC(C)[C@@H]1NC(=O)[C@H]2CCCN2C(=O)[C@@H](C(C)C)NC(=O)[C@@H]2CCCN2C(=O)[C@H](Cc2ccccc2)NC(=O)[C@H](Cc2ccccc2)NC(=O)[C@H]2CCCN2C(=O)[C@@H](C(C)C)NC(=O)[C@@H]2CCCN2C(=O)[C@H](C(C)C)NC1=O` [Design D10.27, PRO DVAL DPRO VAL VAL PRO DVAL DPRO PHE PHE] (cyclo(FFP[dV][dP]VVP[dV][dP])) yielded a PAMPA_R1 [1] of 5.18E-07, a PAMPA_R3 [1] of 5.10E-07 and a Papp (in vitro) of 0.49 ×10⁻⁶ cm/s.

For `CC(C)C[C@@H]1C(=O)N[C@@H](C)C(=O)N[C@H](CC(C)C)C(=O)N(C)[C@@H](C)C(=O)N2CCC[C@@H]2C(=O)N2CCC[C@@H]2C(=O)N2CCC[C@@H]2C(=O)N2CCC[C@H]2C(=O)N[C@H](C(C)C)C(=O)N(C)[C@@H](CC(C)C)C(=O)N1C` [Design D10.28, DLEU *ALA DPRO DPRO DPRO PRO DVAL *LEU *DLEU ALA] (cyclo([dV][NMeL][dNMeL]A[dL][NMeA][dP][dP][dP]P)), the PAMPA_R1 [1] was 1.56E-07, the PAMPA_R3 [1] was 2.34E-07 and the Papp (in vitro) was 0.184 ×10⁻⁶ cm/s.

Work on `CC(C)C[C@@H]1C(=O)N(C)[C@H](C)C(=O)N(C)[C@@H](C(C)C)C(=O)N2CCC[C@@H]2C(=O)N[C@H](C)C(=O)N[C@@H](Cc2ccccc2)C(=O)N2CCC[C@@H]2C(=O)N2CCC[C@H]2C(=O)N[C@H](C(C)C)C(=O)N[C@@H](C(C)C)C(=O)N1C` [Design D10.29, PHE DPRO PRO DVAL VAL *DLEU *DALA *VAL DPRO DALA] (cyclo([dV]V[dNMeL][dNMeA][NMeV][dP][dA]F[dP]P)) yielded a PAMPA_R1 [1] of 3.87E-07, a PAMPA_R3 [1] of 4.67E-07 and a Papp (in vitro) of 0.441 ×10⁻⁶ cm/s.

`CC(C)C[C@H]1NC(=O)[C@H](CC(C)C)N(C)C(=O)[C@@H](Cc2ccccc2)NC(=O)[C@@H](C)N(C)C(=O)[C@@H]2CCCN2C(=O)[C@H](C(C)C)NC(=O)[C@H](CC(C)C)N(C)C(=O)[C@@H](C)NC(=O)[C@@H]2CCCN2C(=O)[C@H]2CCCN2C1=O` [Design D10.32, PRO *DALA DPHE *LEU DLEU DPRO PRO DALA *LEU VAL] (cyclo([dA][NMeL]VP[dNMeA][dF][NMeL][dL][dP]P)) gave a PAMPA_R1 [1] of 2.87E-06, a PAMPA_R3 [1] of 2.80E-06 and a Papp (in vitro) of 3.18 ×10⁻⁶ cm/s.

Compound `CC(C)C[C@@H]1NC(=O)[C@H](C(C)C)NC(=O)[C@@H](CC(C)C)N(C)C(=O)[C@H](C)NC(=O)[C@@H](CC(C)C)N(C)C(=O)[C@@H]2CCCN2C(=O)[C@H]2CCCN2C(=O)[C@H](C)N(C)C(=O)[C@H]2CCCN2C(=O)[C@@H](CC(C)C)NC1=O` [Design D10.35, LEU DLEU DPRO *ALA DPRO PRO *DLEU ALA *DLEU VAL] (cyclo([dNMeL]A[dNMeL]VL[dL][dP][NMeA][dP]P)) has a PAMPA_R1 [1] of 5.25E-07, a PAMPA_R3 [1] of 2.07E-07 and a Papp (in vitro) of 0.279 ×10⁻⁶ cm/s.

In the case of `CC[C@@H](C)[C@H]1NC(=O)[C@@H](Cc2ccccc2)NC(=O)[C@H](CC(C)C)NC(=O)[C@@H](C)N(C)C(=O)[C@@H](CC(C)C)NC(=O)[C@H](CC(C)C)NC(=O)[C@H]2CCCN2C(=O)[C@@H]2CCCN2C(=O)[C@@H](C)NC(=O)[C@H]2CCCN2C1=O` [Design D10.37, DLEU *DALA LEU DPHE DILE DPRO DALA PRO DPRO LEU] (cyclo(L[dF][dI][dP][dA]P[dP]L[dL][dNMeA])), the PAMPA_R1 [1] was 7.62E-07, the PAMPA_R3 [1] was 6.36E-07 and the Papp (in vitro) was 0.654 ×10⁻⁶ cm/s.

Work on `CC[C@@H](C)[C@H]1NC(=O)[C@H]2CCCN2C(=O)[C@@H]2CCCN2C(=O)[C@@H](CC(C)C)NC(=O)[C@H](C)NC(=O)[C@@H](CC(C)C)N(C)C(=O)[C@@H](C)N(C)C(=O)[C@@H]2CCCN2C(=O)[C@@H]([C@H](C)CC)NC(=O)[C@@H](CC(C)C)N(C)C1=O` [Design D10.39, PRO *DALA *DLEU ALA DLEU PRO DPRO DILE *DLEU DILE] (cyclo(A[dL]P[dP][dI][dNMeL][dI]P[dNMeA][dNMeL])) yielded a PAMPA_R1 [1] of 1.69E-06, a PAMPA_R3 [1] of 1.47E-06 and a Papp (in vitro) of 1.48 ×10⁻⁶ cm/s.

In the case of `CC(C)C[C@H]1NC(=O)[C@@H](C(C)C)NC(=O)[C@H](CC(C)C)N(C)C(=O)[C@@H](Cc2ccccc2)NC(=O)[C@H](CC(C)C)N(C)C(=O)[C@H]2CCCN2C(=O)[C@@H]2CCCN2C(=O)[C@H]2CCCN2C(=O)[C@@H](C(C)C)NC(=O)[C@H]2CCCN2C1=O` [Design D10.42, DVAL DLEU DPRO DVAL DPRO PRO DPRO *LEU DPHE *LEU] (cyclo([dP][NMeL][dF][NMeL][dV][dL][dP][dV][dP]P)), the PAMPA_R1 [1] was 7.55E-07, the PAMPA_R3 [1] was 8.78E-07 and the Papp (in vitro) was 0.71 ×10⁻⁶ cm/s.

`CC(C)C[C@@H]1C(=O)N[C@@H](C)C(=O)N[C@H](CC(C)C)C(=O)N2CCC[C@H]2C(=O)N[C@H](C)C(=O)N2CCC[C@@H]2C(=O)N2CCC[C@H]2C(=O)N[C@H](C(C)C)C(=O)N[C@H](CC(C)C)C(=O)N(C)[C@H](CC(C)C)C(=O)N1C` [Design D10.43, DALA DPRO PRO DVAL DLEU *DLEU *DLEU ALA DLEU PRO] (cyclo([dV][dL][dNMeL][dNMeL]A[dL]P[dA][dP]P)) gave a PAMPA_R1 [1] of 1.81E-07, a PAMPA_R3 [1] of 1.70E-07 and a Papp (in vitro) of 0.161 ×10⁻⁶ cm/s.
